Experimental data from patent US20230042929A1, “Methods of Screening to Determine Effective Dosing of Cancer Therapeutics” (Kiyatec, Inc., priority 2019, published 2023).
Where two headings read alike, the source gives them in different places.

Assays:
[1] = test system: recurrent platinum-resistant OC; conditions: patients with recurrent platinum-resistant OC; cited from earlier work
[2] = test system: OVC45 and OVC33 ovarian cancer patient derived 3D spheroids; test: 3D spheroid drug response assay (CellTiter-Glo 3D, imaging); assay type: cell-based, human
Procedure: Live OC tissue was received within 24 hours of surgery and dissociated to single cells via mechanical and enzymatic digestion. Cells were then cryopreserved until ready for use. 3D spheroids were generated as previously described. Briefly, cells were seeded in KIYA-PREDICT™ media (KIYATEC, Inc., South Carolina, USA) in 384-well round bottom, ultra-low attachment plates (Corning Inc., New York, USA) and centrifuged at 500×g for five minutes then placed in a 37° C. incubator at 5% CO2.
Given the prevalence of drug resistance and altered drug penetration for 3D cultures, drug concentrations for single dose experiments were in the micromolar or microgram per milliliter range for testing. […] Viability was determined 48 hours later. For durvalumab (Selleckchem, Texas, USA) and olaparib combination studies, spheroids were treated with olaparib for 48 hours, followed by durvalumab for an additional 72 hours. […] T-cells were then added to the bulk cells and seeded for 3D spheroid culture. Viability was determined 48 hours later. Viability read outs were conducted using CellTiter-Glo® 3D Cell Viability Assay (Promega, Wisconsin, USA) and relative luminescence units (RLUs) were recorded using a TECAN infinite M1000pro (Mannedorf, Switzerland).
Statistical analysis was performed using GraphPad Prism software version 8.2.1. Results are expressed as the mean±standard deviation (SD). Unpaired t tests were used to determine significance between two groups. Unpaired One-way ANOVA with multiple comparisons was used to determine significance across three or more groups. Combenefit software generated concentration responses and Loewe synergy indices from calculated percent viability normalized to vehicle control.

[3] = test system: melanoma cell line with tumor infiltrating lymphocytes; test: Image based assay of tumor and T-cell interactions in 3D spheroids; conditions: 1:3 E:T, up to 72 hours, drug alone
Procedure: Referring to FIGS. 25A-H, a summary of an image-based assay for measuring tumor and T-cell interactions for I/O applications is shown. FIG. 25(A) illustrates representative images of a melanoma cell line (Green) and tumor infiltrating lymphocytes (Red) at a 1:3 Effector:Target cell ratio (E:T) cultured as 3D spheroids at 72 hours, Scale bar=200 μm. Groups were treated with immunomodulators (Activator=CD3/CD28 antibody, Durva=Durvalumab) and analyzed every 24 hours for 72 hours (FIGS. 25F-25H). Total red or green fluorescence was measured for T-cells (FIGS. 25B and 25C) and tumor cells (FIG. 25F) using an algorithm developed in Celleste Image Analysis software. Imaging based metrics were compared to conventional methods for assessing cell viability, CellTiter-Glo® (FIGS. 25D and 25G) and flow cytometry (FIGS. 25E and 25H). An increase in T-cell viability in all treatment groups was observed compared to no treatment when cultured with tumor cells (D). Total green fluorescence signal (F) was an acceptable indicator of T-cell induced cytotoxicity when compared to CellTiter-Glo® (FIG. 25G). The use of flow cytometry as a metric for T-cell induced cytotoxicity appears to not be as sensitive at earlier timepoints (24 hrs) as at later timepoints (72 hours). […] Two-Way ANOVA, error bars reflect SD. *p<0.05, **p<0.01, ***p<0.001.

[4] = cited from earlier work; for half-life: in vivo
[5] = test system: T cells stimulated with matched melanoma tumor spheroids; test: Tumor spheroid assay to assess T cell responses (flow cytometry); assay type: cell-based, human
Procedure: Tumor spheroid assay to assess T cell responses. Expanded T cells were cultured in the absence of activation components (EV3D media) for 72 hours prior to tumor spheroid assay. […] After a 1 hour incubation, plates were centrifuged for 5 minutes at 500×g. Patient samples were then cultured for 24 hours, and wells were then harvested for flow cytometric analysis.
Flow cytometry. Cells were harvested from 384-well plates following tumor spheroid assays or dissociated from scaffolds and resuspended in 100 μl FACS buffer (2% FBS, 2 mM EDTA, 0.05% sodium azide in PBS). […] Samples were then analyzed using the CytoFLEX LX flow cytometer and software (Beckman Coulter, Brea, Calif.). Percent of parent was then graphed and evaluated for statistics using GraphPad Prism.

[6] = test system: GEN26 tumor spheroids; test: Tumor spheroid death assay (CellTiter-Glo 3D); assay type: cell-based, human; conditions: 24 hours
Procedure: Tumor spheroid death assay. […] After a 1 hour incubation at 37 C 5% CO2, plates were centrifuged for 5 minutes at 500×g. Tumor spheroids were allowed to form overnight. After 24 or 72 hours, CellTiter-Glo® 3D Cell Viability Assay (Promega G9683) was used according to manufacturer's recommendations and relative luminescence units (RLUs) were recorded using a TEGAN infinite M1000pro (Mannedorf, Switzerland). RLUs were graphed using GraphPad Prism.

[7] = test system: CD3+ T cells infiltrating matched melanoma microtumors; test: Detection of T cell infiltration in microtumor model; assay type: cell-based, human
Procedure: Detection of T cell infiltration. T cells were stained with the fluorescent stain PKH (Sigma PKH26GL-1KT) according to manufacturer's recommendations. On the same day, T cells and tumor cells were seeded in EV3D media and Matrigel (Corning 356234) in scaffolds. Scaffolds were incubated for 1 hour at 37° C. and 5% CO2 then 200 μl of EV3D media was added to each scaffold well. After an additional hour, T cell scaffolds were placed on top of tumor cell scaffolds (microtumors). Media was changed every one or two days. Viability was determined for T cell scaffolds and microtumors after one week using PrestoBlue™ Cell Viability Reagent (Invitrogen A13262). Microtumors were washed in PBS, then harvested using Liberase DH (Sigma LIBDH− RO) in serum-free media while rotating at 37° C. 5% CO2. Harvested cells were then analyzed for PKH (PE channel), and CD3 using flow cytometry. Unstained T cells were used to define PKH+ gates.

[8] = test system: melanoma microtumors co-cultured with stacked T cell compartment; test: Microtumor viability assay (PrestoBlue growth rate); assay type: cell-based, human
Procedure: PrestoBlue viability assays. PrestoBlue™ Cell Viability Reagent (Invitrogen A13262) was diluted 1:10 in EV3D media. Each T cell scaffold or microtumor was placed in 250 μl of diluted PrestoBlue reagent in a 96-well plate and allowed to incubate for 2 hours at 37° C. 5% CO2. Scaffolds and microtumors were then placed in fresh media and duplicates of 100 μl per PrestoBlue sample was pipetted into a black walled 96-well plate and read on a TECAN infinite M1000pro (Mannedorf, Switzerland) at an excitation of 560 nm and an emission 590 nm with a gain of 60. Absorbance measurements from scaffolds with no cells were subtracted from each sample and relative fluorescent units (RFU) were graphed using GraphPad Prism.
Microtumor viability assay. T cells and tumor cells were seeded in EV3D media and Matrigel (Corning 356234) with collagen (Corning 354236) in scaffolds. […] Scaffolds were incubated for 1 hour at 37° C. and 5% CO2 then 200 μl of EV3D media was added to each scaffold. After an additional hour, T cell scaffolds were placed on top of tumor cell scaffolds (microtumors) or microtumors were cultured in the absence of a stacked T cell scaffold. Media was changed every one to two days. Supernatant from day seven was collected and stored at −80° C. for analyte analysis. Viability was determined for T cell scaffolds and microtumors after 24 hours (day one) and at day seven using PrestoBlue™ Cell Viability Reagent (Invitrogen A13262). PrestoBlue absorbance readings (RFUs) for day one were subtracted from day seven to determine microtumor growth rates.

[9] = test system: GM-CSF, IFNγ, Granzyme B, MIP-1α, MIP-1β, TNFα secretion; test: Detection of analyte secretion in microtumor model (Milliplex); assay type: cell-based, human
Procedure: Detection of Analyte Secretion. Individual beads (GM-CSF, IFNγ, Granzyme B, MIP-1α, MIP-1β, TNFα) were purchased from the Milliplex™ MAP Human CD8+ T cell Magnetic Bead Panel 96-well Plate Assay (EMO Millipore HCD8MAG-15K). Supernatant was collected at day seven of microtumor viability assays and stored at −80° C. Samples were processed according to manufacturer's recommendations and the assay plate was run on the BIORAD Luminex® BioPLEX200™ System (Hercules, Calif.). Analyte concentration was determined by interpolation of assay standards using GraphPad Prism.

In the case of `NC(=O)c1cccc2cn(-c3ccc([C@@H]4CCCNC4)cc3)nc12` [niraparib], the “complete or partial responses, share of patients” value [1] is listed as less than 5%.

With `O=C(c1cc(Cc2n[nH]c(=O)c3ccccc23)ccc1F)N1CCN(C(=O)C2CC2)CC1` [olaparib] the spheroid appearance ([2]; OVC33, 48 hours, images) was “less dense with less cell contact”, the “spheroid viability, relative sensitivity of samples” value ([2]; olaparib alone, 50 μM (OVC33) or 100 μM (OVC45), 48 hours) was “OVC33 was more sensitive to olaparib alone compared to OVC45” and the “spheroid viability, relative sensitivity of samples” value ([2]; single agent olaparib dose-response, sequential dosing study) was “OVC33 remained more sensitive to single agent olaparib than OVC45”.

For durvalumab, the T-cell induced cytotoxicity [3] is given as “did not cause significant T-cell induced cytotoxicity”, the spheroid viability ([2]; durvalumab alone, dose-response, OVC45 and OVC33) is given as “did not result in a dose-dependent reduction in spheroid viability” and the half-life ([4]; human) is given as “high”. The “predicted achievable serum concentration levels” value ([4]; twice weekly intravenous dosing regimen) was “greater than 10 μg/mL”.

For pembrolizumab, the “CD3+/PD-1−/CD69+ population (T cell activation)” value ([5]; GEN25, data not shown) was “did not display an increase”, the “CD3+/PD-1−/CD69+ levels (T cell activation)” value ([5]; three patients (GEN19, GEN21, GEN26), tumor spheroids + 100 μg/ml pembrolizumab vs T cells with or without spheroids) was “significant increase” and the tumor spheroid viability ([6]; GEN26 tumor spheroids alone, 100 μg/ml, vs no treatment) was “slight decrease in viability”. For the same compound, the tumor spheroid viability ([6]; GEN26 tumor spheroids co-cultured with T cells, ratio 1:5, 100 μg/ml) was “greatest reduction in tumor spheroid viability”, the “infiltration of CD3+ T cells” value ([7]; GEN19 and GEN20, with vs without treatment) was “decrease was observed” and the “infiltration of CD3+ T cells” value ([7]; GEN21 and GEN26, with vs without treatment) was “increase in infiltration of CD3+ T cells”. For the same compound, the microtumor growth rate ([8]; GEN19 and GEN26, 100 μg/ml, day 1 to day 7, vs untreated) was “reduced microtumor growth rates compared to untreated”, the microtumor growth rate ([8]; GEN20 or GEN21, 100 μg/ml, day 1 to day 7, vs no treatment) was “did not detect a difference in microtumor growth rates” and the overall microtumor viability ([8]; GEN26, 100 μg/ml, vs untreated microtumors) was “reduction in overall microtumor viability”. The “PrestoBlue RFU readings” value ([8]; day one to day seven, GEN19, GEN26, GEN20, GEN21) was “altered the RFU readings over the 7 day period for GEN19 and GEN26 more significantly than GEN20 and GEN21”, the “granzyme B secretion” value ([9]; GEN19, day 7, 100 μg/ml) was “greatest increase” and the analyte secretion ([9]; GEN19 and GEN26, day 7, 100 μg/ml, vs no treatment) was “increase in nearly all analytes tested”. The analyte secretion ([9]; GEN20, day 7, 100 μg/ml) was “reduction of all tested analytes”, the analyte secretion ([9]; GEN21, day 7, 100 μg/ml) was “increase in GM-CSF and moderate or no change for other tested analytes” and the spheroid viability ([2]; OVC33, T-cells incubated with 300 μg/mL pembrolizumab before 3D incorporation, 48 hours) was “significant reduction in spheroid viability”. For the same compound, the spheroid viability ([2]; OVC45 and OVC33, 100 μg/mL pembrolizumab alone, 48 hours) was “decrease in spheroid viability with pembrolizumab treatment alone was not detected for both samples”, the half-life [4] was “approximately 27 days” and the “predicted maximum serum concentration” value ([4]; intravenous 10 mg/kg once every two weeks, advanced solid tumor cancer patients) was “approximately 200 μg/mL”.
